Experimental data: patent US20090130070A1, “METHOD OF TREATMENT” (The University of Queensland, priority 2004, published 2009)

Test system: Human epidermal keratinocytes (HaCaT cells)
Test: "scrape" in vitro wound healing model (wound closure of a scraped confluent monolayer)
Assay type: cell-based
Details: for wound width, day 1: day 1 (24 hours); for wound width, day 2: day 2 (48 hours)
Protocol: The “scrape” in vitro wound healing model has been previously presented in the literature (Li, F. et al., 2000, Exp Cell Res., 258(2): 245-253; Firth J. D. et al., 2004, J. Invest. Dermatol., 122(1): 222-231). In this model a scrape across a confluent monolayer of cells is used to simulate a wound and the effect of agents added to serum free media is tested on the rate of closure of the gap.
Human epidermal keratinocytes (HaCaT cells) were plated at a density of 1×10^5 cells/well into Nunc 6 well plates in Dulbecco's Modified Eagle Medium (DMEM) containing 10% fetal bovine serum (FBS) benzyl penicillin (100 IU/ml), streptomycin […] confluence (2 days) monolayers were “wounded” with a 1 ml pipette tip (0.5 mm width) by scraping the tip across the centre of the well. The wells were then washed 5 times with DMEM. One ml of either DMEM with 10% FBS, DMEM or DMEM with: 3, 6, 12 or 24 mgs/ml bovine fetuin A (Sigma), 6.25, 12.5, 25 or 50 μg/ml peptide TGF peptide antagonist (Corresponding to residues 41-65 of TGFβ-1-3:—Huang S. S. et al., 1997, Journal of Biological Chemistry, 272(43):27155-27159) and 2.1, 4.2, 8.4 and 16.8 mg/ml bovine thyroglobulin was added to each well (2 replicates per plate, 4 plates). These concentrations were calculated to have equivalent antagonistic effect on the binding of TGFβ-1 to its receptor for each of the compounds. All DMEM solutions used contained benzyl penicillin (100 IU/ml), streptomycin ([…]) and fungizone (250 mg/ml). A mark was placed on the base of each well at right angles to the “wound” and the wound was photographed at the intersection of the mark and wound with a Nikon EOS 300 digital camera fitted to a JenaMed (Ziess Jena) inverted microscope (50×). Images were taken at the same positions 24 and 48 hours after addition of the treatment media. Digital images were analysed with Image Pro (Media Cybernetics) image analysis software and an image of a Nikon stage micrometer was used for calibration of length measurements. Results were summarized as the wound width after 24 and 48 hours.

[1] = 2.1 mg/ml bovine thyroglobulin in DMEM
[2] = 4.2 mg/ml bovine thyroglobulin in DMEM
[3] = 8.4 mg/ml bovine thyroglobulin in DMEM
[4] = 16.8 mg/ml bovine thyroglobulin in DMEM
[5] = 6.25 μg/ml TGF peptide antagonist in DMEM
[6] = 12.5 μg/ml TGF peptide antagonist in DMEM
[7] = 25 μg/ml TGF peptide antagonist in DMEM
[8] = 50 μg/ml TGF peptide antagonist in DMEM

Thyroglobulin: bovine thyroglobulin, comparator that binds members of the TGF-β superfamily
wound width, day 0 [1]: 0.6587
wound width, day 1 [1]: 0.413
wound width, day 2 [1]: 0.4941
wound width, day 0 [2]: 0.6428
wound width, day 1 [2]: 0.5772
wound width, day 2 [2]: 0.5393
wound width, day 0 [3]: 0.6669
wound width, day 1 [3]: 0.5742
wound width, day 2 [3]: 0.5909
wound width, day 0 [4]: 0.6152
wound width, day 1 [4]: 0.5981
wound width, day 2 [4]: 0.6132

TGFB-R inhibitor: peptide TGF peptide antagonist corresponding to residues 41-65 of TGFβ-1-3 (Huang S. S. et al., 1997) (ANFCLGPCPYIWSLDTQYSKVLALY; Transforming growth factor beta-1; UniProt P01137 319-343, looked up, fragment)
wound width, day 0 [5]: 0.6779
wound width, day 1 [5]: 0.5473
wound width, day 2 [5]: 0.4866
wound width, day 0 [6]: 0.6751
wound width, day 1 [6]: 0.5515
wound width, day 2 [6]: 0.4839
wound width, day 0 [7]: 0.6643
wound width, day 1 [7]: 0.5341
wound width, day 2 [7]: 0.4688
wound width, day 0 [8]: 0.6371
wound width, day 1 [8]: 0.554
wound width, day 2 [8]: 0.498
